# Columns and labels:
# velvetleaf [1] = assay: Test C pre-/postemergence herbicide test; type: in vivo, Abutilon theophrasti; settings: for Velvetleaf plant response rating: 500 g ai/ha
# Outline: (§1)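 Pre/post spray; non-phytotoxic solvent + surfactant. Post-timing 1–4 leaves, 2–18 cm. Read-out: visual % control vs untreated, day 12–14, greenhouse.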
# rice = assay: Test B pre-/postemergence herbicide test; type: in vivo, Oryza sativa; settings: preemergence; for Rice plant response rating (0 to 100 scale): 0 = no effect, 100 = complete control
# Outline: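 Seeds were planted and treated preemergence with compounds formulated in a non-phytotoxic solvent mixture containing surfactant, while plants at the 1- to 4-leaf stage (2 to 18 cm) received postemergence sprays. Flooded paddy plants were grown to the 2-leaf stage. After 13 to 15 days in a greenhouse, injury was visually rated 0–100 against untreated controls.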
# large crabgrass = assay: Test C pre-/postemergence herbicide test; type: in vivo, Digitaria sanguinalis; settings: for Crabgrass, Large plant response rating: 500 g ai/ha
# Outline: as §1
# velvetleaf [2] = assay: Test A pre-/postemergence herbicide test; type: in vivo, Abutilon theophrasti
# Outline: (§2)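 Greenhouse injury scoring (0–100, complete control = 100) at approximately ten days follows simultaneous pre- and postemergence application. Soil received a directed spray after seeding; seedlings of 2–10 cm at the one- to two-leaf stage were sprayed to runoff.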
# [3] = tested on: common (oilseed) sunflower; assay: Test C pre-/postemergence herbicide test; type: in vivo, Helianthus annuus; settings: for Plant response rating (0 = no effect, 100 = complete control), Sunflower / Plant response rating, Sunflower: preemergence; for Sunflower plant response rating: Preemergence, 500 g ai/ha, scale 0 to 100, 0 no effect, 100 complete control
# Outline: as §1
# giant foxtail = assay: Test A pre-/postemergence herbicide test; type: in vivo, Setaria faberi
# Outline: as §2
# pigweed = assay: Test C pre-/postemergence herbicide test; type: in vivo, Amaranthus retroflexus; settings: for Pigweed plant response rating: 500 g ai/ha
# Outline: as §1
# cocklebur = assay: Test C pre-/postemergence herbicide test; type: in vivo, Xanthium strumarium; settings: for Cocklebur plant response rating: 500 g ai/ha
# Outline: as §1
# [4] = 125 g ai/ha, scale 0 (no effect) to 100 (complete control), visual, 12 to 14 days, preemergence
# [5] = 250 g ai/ha, scale 0 to 100 (0 no effect, 100 complete control), visual, 12 to 14 days, preemergence
# [6] = Preemergence, scale 0 to 100, 0 no effect, 100 complete control
# [7] = 125 g ai/ha, 0 to 100 scale, 0 is no effect, 100 is complete control
# [8] = Postemergence, 2000 g ai/ha, 0 to 100 scale, 0 no effect, 100 complete control
# [9] = Preemergence, 500 g ai/ha, visual rating, 0 to 100 scale (0 no effect, 100 complete control)
# [10] = Preemergence, 2000 g ai/ha, visual rating, 0 to 100 scale (0 no effect, 100 complete control)
# [11] = 125 g ai/ha, scale 0 (no effect) to 100 (complete control), visual, 12 to 14 days
# [12] = Postemergence, 500 g ai/ha, 0 to 100 scale, 0 no effect, 100 complete control
# [13] = 62 g ai/ha, preemergence, scale 0 to 100
# [14] = 250 g ai/ha, scale 0-100, preemergence
# [15] = 500 g ai/ha, visual rating 0-100, 0 no effect, 100 complete control
# [16] = preemergence, 500 g ai/ha, visual injury, 0 to 100 scale (0 no effect, 100 complete control)
# [17] = postemergence, 125 g ai/ha, scale 0 to 100
# [18] = postemergence, 62 g ai/ha, scale 0 to 100
# [19] = Postemergence, 250 g ai/ha, scale 0 to 100, 0 no effect, 100 complete control
SMILES,"Plant response rating, Velvetleaf (velvetleaf [1]; [4])",Velvetleaf plant response rating (velvetleaf [1]; [6]),"Plant response rating, Rice (rice; [7])","Plant response rating (0 = no effect, 100 = complete control), Crabgrass, Large (large crabgrass; 62 g ai/ha, preemergence)","Plant response rating, Crabgrass, Large (large crabgrass; [4])","Crabgrass, Large plant response rating (large crabgrass; [6])","Plant response rating, Velvetleaf (velvetleaf [2]; [8])",Velvetleaf plant response rating (velvetleaf [2]; [10]),"Plant response rating, Sunflower [3, 11]",Sunflower plant response rating [3],"Plant response rating, Foxtail, Giant (giant foxtail; [8])","Plant response rating, Pigweed (pigweed; [4])",Pigweed plant response rating (pigweed; [6]),"Plant response rating, Cocklebur (cocklebur; [4])",Cocklebur plant response rating (cocklebur; [6]),"Plant response rating, Rice (rice; [15])",Velvetleaf plant response rating (velvetleaf [2]; [12]),Velvetleaf plant response rating (velvetleaf [2]; [16]),"Foxtail, Giant plant response rating (giant foxtail; [12])","Foxtail, Giant plant response rating (giant foxtail; [10])",also measured
CCN1CCc2c(NC(=O)c3cc(C(C)(C)C)nn3CC)cccc2C1=O [Compound 63],10,100,50,10,85,100,55,70,0,30,80,100,100,0,0,,,,,,"Plant response rating, Velvetleaf (velvetleaf [1]; [5]): 30; Plant response rating, Crabgrass, Large (large crabgrass; [5]): 90; Velvetleaf plant response rating (velvetleaf [2]; [9]): 20; Plant response rating (0 = no effect, 100 = complete control), Sunflower ([3]; 62 g ai/ha): 0; Plant response rating, Sunflower ([3]; 250 g ai/ha, scale 0 to 100 (0 no effect, 100 complete control), visual, 12 to 14 days): 0; Plant response rating, Foxtail, Giant (giant foxtail; [12]): 50; Foxtail, Giant plant response rating (giant foxtail; [9]): 95; Foxtail, Giant plant response rating (giant foxtail; Preemergence, 2000 g ai/ha, 0 to 100 scale, 0 no effect, 100 complete control): 100; Plant response rating (0 = no effect, 100 = complete control), Pigweed (pigweed; 62 g ai/ha, preemergence): 100; Plant response rating, Pigweed (pigweed; [5]): 100; Plant response rating (0 = no effect, 100 = complete control), Cocklebur (cocklebur; 62 g ai/ha, preemergence): 0; Plant response rating, Cocklebur (cocklebur; [5]): 0"
CCc1nc(C(C)(C)C)sc1C(=O)Nc1cccc(C(=O)N(CC)CC)c1 [Compound 205],40,100,,,80,100,30,100,0,0,25,95,100,0,0,70,20,70,10,100,"Plant response rating, Velvetleaf (velvetleaf [1]; [13]): 10; Plant response rating, Velvetleaf (velvetleaf [1]; [14]): 60; Rice plant response rating (0 to 100 scale) (rice; 125 g ai/ha): 10; Plant response rating, Crabgrass, Large (large crabgrass; [13]): 60; Plant response rating, Crabgrass, Large (large crabgrass; [14]): 100; Plant response rating, Sunflower ([3]; 62 g ai/ha, scale 0 to 100): 0; Plant response rating, Sunflower ([3]; 250 g ai/ha, scale 0-100): 0; Foxtail, Giant plant response rating (giant foxtail; [16]): 85; Plant response rating, Pigweed (pigweed; [13]): 90; Plant response rating, Pigweed (pigweed; [14]): 95; Plant response rating, Cocklebur (cocklebur; [13]): 0; Plant response rating, Cocklebur (cocklebur; [14]): 0"
CCN(CC)C(=O)c1cccc(NC(=O)c2sc(C(C)(C)C)nc2C)c1 [Compound 199],70,85,,,90,95,35,90,0,0,65,100,100,0,0,20,30,35,25,100,"Plant response rating, Velvetleaf (velvetleaf [1]; [13]): 10; Plant response rating, Velvetleaf (velvetleaf [1]; [14]): 85; Rice plant response rating (0 to 100 scale) (rice; 125 g ai/ha): 0; Plant response rating, Crabgrass, Large (large crabgrass; [13]): 10; Plant response rating, Crabgrass, Large (large crabgrass; [14]): 90; Plant response rating, Sunflower ([3]; 62 g ai/ha, scale 0 to 100): 0; Plant response rating, Sunflower ([3]; 250 g ai/ha, scale 0-100): 0; Foxtail, Giant plant response rating (giant foxtail; [16]): 80; Plant response rating, Pigweed (pigweed; [13]): 100; Plant response rating, Pigweed (pigweed; [14]): 100; Plant response rating, Cocklebur (cocklebur; [13]): 0; Plant response rating, Cocklebur (cocklebur; [14]): 0"
C#CCNC(=O)c1cccc(NC(=O)c2cc(C(C)(C)C)nn2CC)n1 [Compound 147],20,90,0,0,50,100,50,85,0,0,90,90,100,,0,10,30,25,45,95,"Velvetleaf plant response rating (velvetleaf [1]; Postemergence, scale 0 to 100): 40; Plant response rating, Velvetleaf (velvetleaf [1]; [17]): 30; Plant response rating, Velvetleaf (velvetleaf [1]; [18]): 0; Plant response rating, Crabgrass, Large (large crabgrass; [5]): 90; Crabgrass, Large plant response rating (large crabgrass; Postemergence, scale 0 to 100): 60; Plant response rating, Crabgrass, Large (large crabgrass; [19]): 10; Plant response rating, Crabgrass, Large (large crabgrass; [17]): 0; Plant response rating, Crabgrass, Large (large crabgrass; [18]): 0; Plant response rating (0 = no effect, 100 = complete control), Sunflower ([3]; 62 g ai/ha): 0; Foxtail, Giant plant response rating (giant foxtail; [9]): 60; Plant response rating (0 = no effect, 100 = complete control), Pigweed (pigweed; 62 g ai/ha, preemergence): 20; Pigweed plant response rating (pigweed; Postemergence, scale 0 to 100): 100; Plant response rating, Pigweed (pigweed; [19]): 100; Plant response rating, Pigweed (pigweed; [17]): 90; Plant response rating, Pigweed (pigweed; [18]): 90; Plant response rating (0 = no effect, 100 = complete control), Cocklebur (cocklebur; 62 g ai/ha, preemergence): 0; Cocklebur plant response rating (cocklebur; Postemergence, scale 0 to 100): 20; Plant response rating, Cocklebur (cocklebur; [19]): 5; Plant response rating, Cocklebur (cocklebur; [17]): 5; Plant response rating, Cocklebur (cocklebur; [18]): 0"

# — patent publication US20060069132A1, “Azolecarboxamide herbicides” (priority 2004, published 2006)
